In paper PMC6476926, “Dichloro-Phenyl-Benzotriazoles: A New Selective Class of Human Respiratory Syncytial Virus Entry Inhibitors” (Frontiers in Chemistry, 2019):

Assays:
Reo-1 = assay: microbe, parasite or virus in culture; format: cell-based, Reovirus type-1 (Reo-1); settings: Reovirus sp., BHK, read-out: EC50 Reo-1
[1] = Cytotoxicity, MTT method, BHK cells; settings: Syrian hamster (Mesocricetus auratus)
BVDV = assay: microbe, parasite or virus in culture; format: cell-based; settings: Bovine viral diarrhea virus isolates and strains, MDBK, read-out: EC50 BVDV
Sb-1, VSV, VV, HSV-1 = assay: organism not typed; format: cell-based; settings: Vero 76, read-out: EC50 Sb-1, VSV, VV, HSV-1
HIV-1IIIB = assay: microbe, parasite or virus in culture; format: cell-based, Human Immunodeficiency Virus type-1 (HIV-1); settings: Human immunodeficiency virus 1, MT4, read-out: EC50 HIV-1IIIB
YFV = assay: microbe, parasite or virus in culture; format: cell-based; settings: Yellow fever virus, BHK, read-out: EC50 YFV
CV-B5 = assay: microbe, parasite or virus in culture; format: cell-based, Human Enterovirus B [coxsackie type B5 (CV-B5)]; settings: Enterovirus B, CVB5, Vero 76, read-out: EC50 CV-B5
RSV = assay: microbe, parasite or virus in culture; format: cell-based, Human Respiratory Syncytial Virus (RSV) strain A2; settings: human respiratory syncytial virus, Vero 76, read-out: EC50 RSV
in vitro = settings: cattle (Bos taurus)
[2] = Cytotoxicity, MTT method, MT-4 cells; settings: human
[3] = Cytotoxicity, MTT method, Vero-76 cells; settings: African green monkey (Cercopithecus aethiops)

Row | Structure (SMILES) | EC50 (Reo-1) [µM] | CC50 [1] [µM] | EC50 (BVDV) [µM] | EC50 (Sb-1, VSV, VV, HSV-1) [µM] | EC50 (HIV-1IIIB) [µM] | EC50 (YFV) [µM] | melting point [°C] | EC50 (CV-B5) [µM] | EC50 (RSV) [µM] | CC50 (in vitro) [µM] | CC50 [2] [µM] | CC50 at 5 days [3] [µM] | CC50 [3] [µM]
1 | COc1cc(C(=O)Nc2ccc(-n3nnc4cc(Cl)c(Cl)cc43)cc2)cc(OC)c1OC [7d, N-[4-(5,6-dichloro-1H-benzo[d][1,2,3]triazol-1-yl)phenyl]-3,4,5-trimethoxybenzamide] | > 100 | > 100 | > 100 | > 90 | > 77 | 78 | 212 to 213 | > 90 | 5 | > 100 | 77 | 90 | –
2 | O=C(Nc1ccc(-n2nnc3cc(Cl)c(Cl)cc32)cc1)c1ccc(C(F)(F)F)cc1 [7g, N-[4-(5,6-dichloro-1H-benzo[d][1,2,3]triazol-1-yl)phenyl]-4-(trifluoromethyl)benzamide] | > 100 | > 100 | > 100 | > 90 | > 100 | > 100 | > 290 | > 90 | 5 | > 100 | > 100 | 9 | –
3 | CCCCNC(=O)Nc1ccc(-n2nc3cc(Cl)c(Cl)cc3n2)cc1 [10c, 1-[4-(5,6-dichloro-2H-benzo[d][1,2,3]triazol-2-yl)phenyl]-3-butylurea] | > 100 | > 100 | > 100 | > 95 | > 100 | > 100 | > 300 | > 95 | > 100 | > 100 | > 100 | > 100 | 90
4 | Cc1ccc(C(=O)Nc2ccc(-n3nnc4cc(Cl)c(Cl)cc43)cc2)cc1 [7b, N-[4-(5,6-dichloro-1H-benzo[d][1,2,3]triazol-1-yl)phenyl]-4-methylbenzamide] | > 100 | > 100 | > 100 | > 100 | > 100 | > 100 | 226 to 228 | > 100 | > 100 | > 100 | > 100 | > 100 | –
5 | CCCC(=O)N(C(=O)CCC)c1ccc(-n2nc3cc(Cl)c(Cl)cc3n2)cc1 [6f, N-butyryl-N-[4-(5,6-dichloro-2H-benzo[d][1,2,3]triazol-2-yl)phenyl] butyramide] | > 26 | 62 | > 84 | > 100 | > 24 | > 62 | 130 to 133 | 33 | 6 | 84 | 24 | > 100 | –
6 | CCCC(=O)Nc1ccc(-n2nc3cc(Cl)c(Cl)cc3n2)cc1 [6c, N-[4-(5,6-dichloro-2H-benzo[d][1,2,3]triazol-2-yl)phenyl]butanamide] | > 100 | > 100 | > 100 | > 100 | > 100 | > 100 | 243 to 245 | > 100 | > 100 | > 100 | > 100 | > 100 | –
7 | O=C(Nc1ccc(-n2nnc3cc(Cl)c(Cl)cc32)cc1)c1ccccc1 [7a, N-[4-(5,6-dichloro-1H-benzo[d][1,2,3]triazol-1-yl)phenil]benzamide] | > 44 | 44 | > 100 | > 100 | > 100 | > 44 | 250 to 252 | > 100 | 60 | > 100 | > 100 | > 100 | –
8 | O=C(Nc1ccc(-n2nc3cc(Cl)c(Cl)cc3n2)cc1)Nc1cccc2ccccc12 [10k, 1-[4-(5,6-dichloro-2H-benzo[d][1,2,3]triazol-2-yl)phenyl]-3-naphtylurea] | > 100 | > 100 | > 100 | > 100 | > 100 | > 100 | > 290 | > 100 | > 100 | > 100 | > 100 | > 100 | –
9 | O=C(Nc1ccc(F)cc1)Nc1ccc(-n2nc3cc(Cl)c(Cl)cc3n2)cc1 [10i, 1-[4-(5,6-dichloro-2H-benzo[d][1,2,3]triazol-2-yl)phenyl]-3-(4-fluorophenyl)urea] | > 100 | > 100 | > 100 | > 100 | > 100 | > 100 | > 290 | > 100 | > 100 | > 100 | > 100 | > 100 | –
10 | O=C(Nc1ccccc1)Nc1ccc(-n2nc3cc(Cl)c(Cl)cc3n2)cc1 [10e, 1-[4-(5,6-dichloro-2H-benzo[d][1,2,3]triazol-2-yl)phenyl]-3-phenylurea] | > 100 | > 100 | > 100 | > 100 | > 100 | > 100 | > 290 | > 100 | > 100 | > 100 | > 100 | > 100 | –
11 | CC(=O)N(C(C)=O)c1ccc(-n2nc3cc(Cl)c(Cl)cc3n2)cc1 [6d, N-acetyl-N-[4-(5,6-dichloro-2H-benzo[d][1,2,3]triazol-2-yl)phenyl]acetamide] | > 100 | 72 | > 100 | > 100 | > 33 | > 72 | 224 to 226 | > 100 | 40 | 100 | 33 | > 100 | –
12 | O=C(Nc1ccc(-n2nnc3cc(Cl)c(Cl)cc32)cc1)c1ccc(Cl)cc1 [7f, N-[4-(5,6-dichloro-1H-benzo[d][1,2,3]triazol-1-yl)phenyl] 4-chlorobenzamide] | > 84 | 84 | > 100 | > 100 | > 100 | > 84 | 234 to 236 | > 100 | 8 | > 100 | > 100 | > 100 | –
13 | Cc1ccc(C(=O)Nc2ccc(-n3nc4cc(Cl)c(Cl)cc4n3)cc2)cc1 [8b, N-[4-(5,6-dichloro-2H-benzo[d][1,2,3]triazol-2-yl)phenyl]-4-methylbenzamide] | > 100 | > 100 | > 100 | > 100 | > 100 | 73 | 210 to 213 | > 100 | 27 | > 100 | > 100 | > 100 | –
14 | CC(=O)Nc1ccc(-n2nnc3cc(Cl)c(Cl)cc32)cc1 [5a, N-[4-(5,6-dichloro-1H-benzo[d][1,2,3]triazol-1-yl)phenyl]acetamide] | > 53 | 53 | > 43 | > 30 | > 35 | > 53 | 209 to 211 | 17 | 3 | 43 | 35 | 30 | –
15 | CC(=O)Nc1ccc(-n2nc3cc(Cl)c(Cl)cc3n2)cc1 [6a, N-[4-(5,6-dichloro-2H-benzo[d][1,2,3]triazol-2-yl)phenyl]acetamide] | > 100 | > 100 | > 100 | > 100 | > 100 | > 100 | > 290 | > 100 | > 100 | > 100 | > 100 | > 100 | –
16 | COc1ccc(C(=O)Nc2ccc(-n3nnc4cc(Cl)c(Cl)cc43)cc2)cc1 [7c, N-[4-(5,6-dichloro-1H-benzo[d][1,2,3]triazol-1-yl)phenyl]-4-methoxybenzamide] | > 100 | > 100 | > 100 | > 100 | > 33 | > 100 | 193 to 195 | > 100 | 35 | > 100 | 33 | > 100 | –
17 | O=C(NCc1ccccc1)Nc1ccc(-n2nc3cc(Cl)c(Cl)cc3n2)cc1 [10j, 1-[4-(5,6-dichloro-2H-benzo[d][1,2,3]triazol-2-yl)phenyl]-3-benzylurea] | > 100 | > 100 | > 100 | > 100 | > 100 | > 100 | > 290 | > 100 | > 100 | > 100 | > 100 | > 100 | –
18 | O=C(Nc1ccc(-n2nc3cc(Cl)c(Cl)cc3n2)cc1)c1ccc(Cl)cc1 [8f, N-[4-(5,6-dichloro-2H-benzo[d][1,2,3]triazol-2-yl)PHENYL] 4-chlorobenzamide] | > 100 | > 100 | 60 | > 100 | > 100 | > 100 | 268 to 270 | > 100 | 20 | > 100 | > 100 | 80 | –
